# According to PubChem BioAssay (NCI):
#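 Following 48 hours of exposure in 96-well plates, responses at five concentrations were used to interpolate endpoints linearly. Here, GI50 denotes the concentration required for 50% inhibition of growth. TGI is the concentration that stops growth completely.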 Where a SMILES comes first, the peptide text is derived from it. The star is where a group is joined. Cbz = O=C(OCc1ccccc1)*; Bn = c1ccc(C*)cc1
# Columns and labels:
# Test in all cases: NCI tumour cell line growth inhibition, 48 h
# DMS 114 small cell lung = test system: DMS 114 small cell lung
# DMS 273 small cell lung = test system: DMS 273 small cell lung
# RXF-631 renal = test system: RXF-631 renal
# XF 498 CNS = test system: XF 498 CNS
# SR leukemia = test system: SR leukemia
# SNB-78 CNS = test system: SNB-78 CNS
# DLD-1 colon = test system: DLD-1 colon
# LXFL 529 NSCLC = test system: LXFL 529 NSCLC
# MDA-MB-435 = test system: MDA-MB-435
# MCF7 breast = test system: MCF7 breast
# MDA-N = test system: MDA-N
# T-47D breast = test system: T-47D breast
# 786-0 renal = test system: 786-0 renal
# P388 leukemia = test system: P388 leukemia
# SN12K1 renal = test system: SN12K1 renal
# P388/ADR leukemia = test system: P388/ADR leukemia
SMILES,TGI (DMS 114 small cell lung) [µM],TGI (DMS 273 small cell lung) [µM],TGI (XF 498 CNS) [µM],TGI (SR leukemia) [µM],TGI (SNB-78 CNS) [µM],TGI (DLD-1 colon) [µM],TGI (MDA-MB-435) [µM],TGI (MCF7 breast) [µM],TGI (MDA-N) [µM],TGI (T-47D breast) [µM],TGI (786-0 renal) [µM],also measured
CC1C[C@]2(C[C@@H](C)C(=O)O2)OC2CC3(C)C4CCC5C(C)(C)OC(=O)CC[C@@]56C[C@@]46CC[C@]3(C)C12 (stereo not given in full),> 100,> 100,> 100,> 100,> 100,> 100,,,,,,TGI (RXF-631 renal): > 100 µM; TGI (LXFL 529 NSCLC): > 100 µM
C1CSCCSCSCCS1,,,,,,,> 100,> 100,> 100,> 100,,
CS(=O)(=O)c1ccc2nc(-c3ccc(O)cc3)sc2c1,,,,39.8,,,37.8,35.5,34.4,,,
C[n+]1c2ccccc2c(CNCC(=O)O)c2ccccc21,4.83,2.74,3.85,,44.3,2,,,,,2.58,TGI (LXFL 529 NSCLC): 3.15 µM
COC(=O)C(Cc1ccc(O)cc1)NC(=O)C(COCc1ccccc1)NC(=O)OCc1ccccc1 (stereo not given) (Cbz-Ser(Bn)-Tyr-OMe; configuration not given here),,,,> 100,,,34.1,36.6,31.4,39.5,,
COc1ccc(-c2oc3cc(OC(C)=O)cc(OC(C)=O)c3c(=O)c2OC)cc1,,,,51.5,,,25.4,48.4,28.3,57.9,,
CCCCSCC(NC(=O)/C=C/c1c(C)[nH]c(=O)[nH]c1=O)C(=O)OC (stereo not given),271,264,,,303,275,,114,,,,TGI (P388 leukemia): 137 µM; TGI (SN12K1 renal): 173 µM; TGI (P388/ADR leukemia): > 450 µM
O=C1c2cccc(O)c2C(=O)c2c(O)cccc21,> 100,> 100,> 100,> 100,> 100,> 100,,,,,> 100,TGI (LXFL 529 NSCLC): > 100 µM
C[P+](c1ccccc1)(c1ccc(Cl)cc1)c1ccc(Cl)cc1,,,,,,,18.7,> 100,,49.3,> 100,
CN(C)CCOc1cc2c(c3ccccc13)-c1ccccc1C2O (stereo not given),26.2,29,25.7,,31.6,30.2,,28.3,,,,TGI (P388 leukemia): > 100 µM; TGI (SN12K1 renal): 19.5 µM; TGI (P388/ADR leukemia): 33.3 µM
NC(CCP(=O)(O)O)C(=O)O (stereo not given),,,,> 100,,,> 100,,> 100,> 100,> 100,
N=C(N)c1ccc(-c2ccc(-c3ccc4ccccc4c3)s2)s1,,,,,,,4.08,,,4.52,,GI50 (MDA-MB-435): 1.91 µM; GI50 (T-47D breast): 1.95 µM
COc1ccc(N2C(=O)/C(=C\c3ccccc3)SC2c2cc(OC)c(OC)c(OC)c2)cc1 (stereo not given),,,,> 100,,,79.7,> 100,44.8,> 100,,
NC(=O)c1ccc([N+](=O)[O-])cc1,> 100,> 100,> 100,,> 100,> 100,,,,,> 100,TGI (RXF-631 renal): > 100 µM; TGI (LXFL 529 NSCLC): > 100 µM
c1ccc(-c2n(Cc3ccc4ccccc4c3)c3ccccc3[n+]2Cc2ccc3ccccc3c2)cc1,,,,1.64,,,1.06,,,,,GI50 (MDA-MB-435): 0.288 µM; GI50 (SR leukemia): 0.343 µM
O=C(Nc1ccc(Cl)cc1)c1cc([N+](=O)[O-])ccc1O,6.75,20,8.72,31.6,,> 100,,,,,> 46.8,TGI (RXF-631 renal): > 45.7 µM; TGI (LXFL 529 NSCLC): 16.8 µM
C=CCOCCC(CC=C)C(=O)CC(=O)OC (stereo not given),,> 100,> 100,> 100,,> 100,,,,,,
